Test results published in US20250195530A1, “POLQ INHIBITORS” (ASTRAZENECA AB, priority 2022, published 2025).
Read-outs that look alike come from different tables or passages of the source. Values belong to the molecule of their own block, whether it stands above or below them.

Assays:
DLD-1 cells = assay: Inhibition of proliferation, DLD-1 BRCA2 wt control (Cell Titre Glo 3D); assay type: cell-based; conditions: for IC50: Homo sapiens
How it was run: (§1)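 Cells are seeded in RPMI 1640 (phenol red free, 10% FBS, GlutaMAX) onto pre-dosed compound (10 μM to 0.51 nM, three-fold). Plates are incubated at 37 °C, and medium plus compound are refreshed on day 6. Viability is read by CellTiter-Glo 3D at day 7 (DLD-1) or day 12 (DLD-1 BRCA2−/−), and the IC50 is fitted.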

DLD-1 BRCA2−/− cells = assay: Homologous recombination synthetic lethal inhibition of proliferation, DLD-1 BRCA2-/- (Cell Titre Glo 3D); assay type: cell-based; conditions: for IC50: Homo sapiens
How it was run: as §1

[1] = DLD-1, 168 h, DLD-1 BRCA2 wt cells, 7 days, read-out: POLQ PD Prolif Lumin DLD1 mean pIC50 (converted)
[2] = DLD-1, 288 h, DLD-1 BRCA2−/− cells, 12 days, read-out: POLQ PD Prolif Lumin BRCA2 −/− mean pIC50 (converted)
[3] = DLD-1, DLD1 BRCA2 wt, mean, read-out: POLQ PD Prolif Lumin DLD1 mean pIC50 (converted)
[4] = DLD-1, DLD-1 BRCA2 −/−, mean, read-out: POLQ PD Prolif Lumin BRCA2 −/− mean pIC50 (converted)
[5] = DLD-1, DLD-1 BRCA2 wt control proliferation, column head only partly shown, read-out: POLQ PD Prolif Lumin (converted)
[6] = DLD-1, DLD-1 BRCA2-/- proliferation, column head only partly shown, read-out: POLQ PD Prolif Lumin (converted)
[7] = DLD-1, second proliferation column (c6), taken as DLD-1 BRCA2 wt, read-out: POLQ PD Prolif Lumin (converted)
[8] = DLD-1, first proliferation column (c5), taken as DLD-1 BRCA2-/-, read-out: POLQ PD Prolif Lumin (converted)

IC50 (DLD-1 cells; [1]): 3160 nM
SMILES: C[C@@H]1CN(CCOc2ccc(-c3nc4c(OC5(C)CC5)ncnc4n3Cc3ccccc3)c(Cl)c2)CCN1 [Example R6, (R)-9-benzyl-8-(2-chloro-4-(2-(3-methylpiperazin-1-yl)ethoxy)phenyl)-6-(1-methylcyclopropoxy)-9H-purine]
IC50 (DLD-1 BRCA2−/− cells; [2]): 63.1 nM

IC50 (DLD-1 cells; [3]): > 10000 nM
SMILES: COc1ccc(C(F)(F)F)cc1Cn1c(-c2ccc(OCC[C@H](C)C(=O)O)cc2Cl)nc2c(OC3(C)CC3)ncnc21 [Example U76, (S)-4-(3-chloro-4-(9-(2-methoxy-5-(trifluoromethyl)benzyl)-6-(1-methylcyclopropoxy)-9H-purin-8-yl)phenoxy)-2-methylbutanoic acid]
IC50 (DLD-1 BRCA2−/− cells; [4]): 200 nM

IC50 (DLD-1 cells; [1]): > 10000 nM
SMILES: CC1(Oc2ccnc3c2nc(-c2ccc(OCCN4CCNCC4)cc2Cl)n3Cc2cc(Cl)ccn2)CC1 [Example 14, 2-(2-Chloro-4-(2-(piperazin-1-yl)ethoxy)phenyl)-3-((4-chloropyridin-2-yl)methyl)-7-(1-methylcyclopropoxy)-3H-imidazo[4,5-b]pyridine]
IC50 (DLD-1 BRCA2−/− cells; [2]): 251 nM

IC50 (DLD-1 cells; [5]): > 10000 nM
SMILES: CC(CCOc1ccc(-c2nc3c(OC4(C)CC4)ncnc3n2Cc2cc(Cl)cc(Cl)c2)c(Cl)c1)C(=O)O (racemic) [Example T275, 4-(3-chloro-4-(9-(3,5-dichlorobenzyl)-6-(1-methylcyclopropoxy)-9H-purin-8-yl)phenoxy)-2-methylbutanoic acid]
IC50 (DLD-1 BRCA2−/− cells; [6]): 126 nM

IC50 (DLD-1 cells; [1]): > 10000 nM
SMILES: Cc1ccnc(Cn2c(-c3ccc(OCCN(C)C)cc3Cl)nc3c(OC4(C)CC4)ncnc32)c1 [Example 25, 2-(3-Chloro-4-(6-(1-methylcyclopropoxy)-9-((4-methylpyridin-2-yl)methyl)-9H-purin-8-yl)phenoxy)-N,N-dimethylethan-1-amine]
IC50 (DLD-1 BRCA2−/− cells; [2]): 100 nM

IC50 (DLD-1 cells; [3]): 6310 nM
SMILES: COc1ccc(Cl)cc1Cn1c(-c2ccc(OCCCC(C)(C)C(=O)O)cc2Cl)nc2c(OC3(C)CC3)ncnc21 [Example U47, 5-(3-chloro-4-(9-(5-chloro-2-methoxybenzyl)-6-(1-methylcyclopropoxy)-9H-purin-8-yl)phenoxy)-2,2-dimethylpentanoic acid]
IC50 (DLD-1 BRCA2−/− cells; [4]): 31.6 nM

IC50 (DLD-1 cells; [5]): > 10000 nM
SMILES: Cc1ccnc(Cn2c(-c3ccc(OCCN(C)C)cc3Cl)nc3c(OC4(C#N)CC4)ncnc32)c1 [Example T203, 1-((8-(2-chloro-4-(2-(dimethylamino)ethoxy)phenyl)-9-((4-methylpyridin-2-yl)methyl)-9H-purin-6-yl)oxy)cyclopropane-1-carbonitrile]
IC50 (DLD-1 BRCA2−/− cells; [6]): 398 nM

IC50 (DLD-1 cells; [1]): > 10000 nM
SMILES: Cc1nc(Cn2c(-c3ccc(OCCN4CCN(C)CC4)cc3Cl)nc3c(OC4(C)CC4)ncnc32)cs1 [Example 7, 4-((8-(2-Chloro-4-(2-(4-methylpiperazin-1-yl)ethoxy)phenyl)-6-(1-methylcyclopropoxy)-9H-purin-9-yl)methyl)-2-methylthiazole]
IC50 (DLD-1 BRCA2−/− cells; [2]): 794 nM

POLQ PD Prolif Lumin DLD1 mean pIC50 (DLD-1 cells; DLD1 BRCA2 wt, mean): <5.0
SMILES: COc1ccc(C)cc1Cn1c(-c2cccc(O[C@H]3CC[C@H](C(=O)O)CC3)c2Cl)nc2c(OC3(C)CC3)ncnc21 [Example U91, (1r,4r)-4-(2-chloro-3-(9-(2-methoxy-5-methylbenzyl)-6-(1-methylcyclopropoxy)-9H-purin-8-yl)phenoxy)cyclohexane-1-carboxylic acid]
POLQ PD Prolif Lumin BRCA2 −/− mean pIC50 (DLD-1 BRCA2−/− cells; DLD-1 BRCA2 −/−, mean): 7.8

SMILES: CC1(Oc2cccc3c2nc(-c2ccc(OCCN4CCNCC4)cc2Cl)n3Cc2ccccn2)CCC1 [Example P1, 2-(2-chloro-4-(2-(piperazin-1-yl)ethoxy)phenyl)-4-(1-methylcyclobutoxy)-1-(pyridin-2-ylmethyl)-1H-benzo[d]imidazole]
IC50 (DLD-1 cells; [1]): > 10000 nM
IC50 (DLD-1 BRCA2−/− cells; [2]): 1260 nM

IC50 (DLD-1 cells; [1]): > 10000 nM
SMILES: COc1ccc(-c2nc3cc(OC(C)C)ccc3n2Cc2ccccc2)c(Cl)c1 [Example A12, 1-benzyl-2-(2-chloro-4-methoxyphenyl)-5-isopropoxy-1H-benzo[d]imidazole]
IC50 (DLD-1 BRCA2−/− cells; [2]): 2000 nM

IC50 (DLD-1 cells; [7]): > 10000 nM
SMILES: CC1(Oc2ncnc3c2nc(-c2ccc(OCCCC(=O)NS(C)(=O)=O)cc2Cl)n3Cc2cccc(Cl)c2)CC1 [Example T326, 4-(3-chloro-4-(9-(3-chlorobenzyl)-6-(1-methylcyclopropoxy)-9H-purin-8-yl)phenoxy)-N-(methylsulfonyl)butanamide]
IC50 (DLD-1 BRCA2−/− cells; [8]): 631 nM

IC50 (DLD-1 cells; [7]): > 10000 nM
SMILES: Cc1ccnc(Cn2c(-c3ccc(OCCCN(C)C)cc3Cl)nc3c(OC4(C)CC4)ncnc32)c1 [Example T385, 3-(3-chloro-4-(6-(1-methylcyclopropoxy)-9-((4-methylpyridin-2-yl)methyl)-9H-purin-8-yl)phenoxy)-N,N-dimethylpropan-1-amine]
IC50 (DLD-1 BRCA2−/− cells; [8]): 79.4 nM

IC50 (DLD-1 cells; [1]): 3160 nM
SMILES: CC(C)Oc1ccc2c(n1)nc(-c1ccc(OCCN3CCNCC3)cc1Cl)n2Cc1ccccc1 [Example 8, 1-Benzyl-2-(2-chloro-4-(2-(piperazin-1-yl)ethoxy)phenyl)-5-isopropoxy-1H-imidazo[4,5-b]pyridine]
IC50 (DLD-1 BRCA2−/− cells; [2]): 1000 nM

IC50 (DLD-1 cells; [3]): > 6310 nM
SMILES: C[C@@H](CCOc1ccc(-c2nc3c(OC4(C)CC4)ncnc3n2Cc2cc(Cl)ccc2F)c(Cl)c1)C(=O)O [Example U11, (S)-4-(3-chloro-4-(9-(5-chloro-2-fluorobenzyl)-6-(1-methylcyclopropoxy)-9H-purin-8-yl)phenoxy)-2-methylbutanoic acid]
IC50 (DLD-1 BRCA2−/− cells; [4]): 50.1 nM

IC50 (DLD-1 cells; [3]): > 10000 nM
SMILES: COc1ccc(Cl)cc1Cn1c(-c2cccc(CCCC(=O)O)c2Cl)nc2c(OC3(C)CC3)ncnc21 [Example U62, 4-(2-chloro-3-(9-(5-chloro-2-methoxybenzyl)-6-(1-methylcyclopropoxy)-9H-purin-8-yl)phenyl)butanoic acid]
IC50 (DLD-1 BRCA2−/− cells; [4]): 50.1 nM

IC50 (DLD-1 cells; DLD-1, second proliferation column, DLD-1 BRCA2 wt control, read-out: POLQ PD Prolif Lumin (converted)): > 10000 nM
SMILES: Cc1ccnc(Cn2c(-c3ccc(OCCCN4CC[C@@H](O)C4)cc3Cl)nc3c(OC4(C)CC4)ncnc32)c1 [Example T592, (R)-1-(3-(3-chloro-4-(6-(1-methylcyclopropoxy)-9-((4-methylpyridin-2-yl)methyl)-9H-purin-8-yl)phenoxy)propyl)pyrrolidin-3-ol]
IC50 (DLD-1 BRCA2−/− cells; DLD-1, first proliferation column, DLD-1 BRCA2-/-, read-out: POLQ PD Prolif Lumin (converted)): 200 nM

IC50 (DLD-1 cells; [5]): > 7940 nM
SMILES: Cc1cnc(Cn2c(-c3ccc(OCCCN4CC(O)C4)cc3Cl)nc3c(OC4(C)CC4)ncnc32)s1 [Example T244, 1-(3-(3-chloro-4-(6-(1-methylcyclopropoxy)-9-((5-methylthiazol-2-yl)methyl)-9H-purin-8-yl)phenoxy)propyl)azetidin-3-ol]
IC50 (DLD-1 BRCA2−/− cells; [6]): 501 nM

IC50 (DLD-1 cells; [5]): > 10000 nM
SMILES: Cc1ccnc(Cn2c(-c3ccc(CN4CC(O)C4)cc3Cl)nc3c(OC4(C)CC4)ncnc32)c1 [Example T209, 1-(3-chloro-4-(6-(1-methylcyclopropoxy)-9-((4-methylpyridin-2-yl)methyl)-9H-purin-8-yl)benzyl)azetidin-3-ol]
IC50 (DLD-1 BRCA2−/− cells; [6]): 631 nM

IC50 (DLD-1 cells; [1]): > 10000 nM
SMILES: C[C@H]1C(=O)NCCN1CCOc1ccc(-c2nc3c(OC4(C)CC4)ncnc3n2Cc2ccccc2)c(Cl)c1 [Example H19, (S)-4-(2-(4-(9-benzyl-6-(1-methylcyclopropoxy)-9H-purin-8-yl)-3-chlorophenoxy)ethyl)-3-methylpiperazin-2-one]
IC50 (DLD-1 BRCA2−/− cells; [2]): 63.1 nM

IC50 (DLD-1 cells; DLD-1, proliferation, luminescence, second Prolif column (c6), taken as DLD-1 BRCA2 wt control, read-out: POLQ PD Prolif Lumin (converted)): > 10000 nM
SMILES: CC1(Oc2ncnc3c2nc(-c2cccc(OCCCCCC(=O)O)c2Cl)n3Cc2cccc(Cl)c2)CC1 [Example T440, 6-(2-chloro-3-(9-(3-chlorobenzyl)-6-(1-methylcyclopropoxy)-9H-purin-8-yl)phenoxy)hexanoic acid]
IC50 (DLD-1 BRCA2−/− cells; DLD-1, proliferation, luminescence, taken as DLD-1 BRCA2-/-, read-out: POLQ PD Prolif Lumin (converted)): 25.1 nM

IC50 (DLD-1 cells; [1]): > 10000 nM
SMILES: CC1(Oc2ncnc3c2nc(-c2ccc(OCCN4CCNCC4)cc2Cl)n3Cc2cc(C3CC3)ccn2)CC1 [Example S3, 8-(2-chloro-4-(2-(piperazin-1-yl)ethoxy)phenyl)-9-((4-cyclopropylpyridin-2-yl)methyl)-6-(1-methylcyclopropoxy)-9H-purine]
IC50 (DLD-1 BRCA2−/− cells; [2]): 794 nM

IC50 (DLD-1 cells; [1]): 7940 nM
SMILES: CC1(Oc2ncnc3c2nc(-c2ccc(O[C@H]4CNC[C@H]4F)cc2Cl)n3Cc2ccccc2)CC1 [Example D31, 9-benzyl-8-(2-chloro-4-(((3S,4R)-4-fluoropyrrolidin-3-yl)oxy)phenyl)-6-(1-methylcyclopropoxy)-9H-purine]
IC50 (DLD-1 BRCA2−/− cells; [2]): 200 nM

IC50 (DLD-1 cells; [1]): 2510 nM
SMILES: CN1CCN(CCOc2ccc(-c3nc4c(OC5(C)CC5)ncnc4n3Cc3ccccc3Cl)c(Cl)c2)CC1 [Example E1, 8-(2-chloro-4-(2-(4-methylpiperazin-1-yl)ethoxy)phenyl)-9-(2-chlorobenzyl)-6-(1-methylcyclopropoxy)-9H-purine]
IC50 (DLD-1 BRCA2−/− cells; [2]): 31.6 nM

IC50 (DLD-1 cells; [5]): > 10000 nM
SMILES: Cc1cnc(Cn2c(-c3ccc(OC4CC5(CNC5)C4)cc3Cl)nc3c(OC4(C)CC4)ncnc32)s1 [Example T215, 2-((8-(4-((2-azaspiro[3.3]heptan-6-yl)oxy)-2-chlorophenyl)-6-(1-methylcyclopropoxy)-9H-purin-9-yl)methyl)-5-methylthiazole]
IC50 (DLD-1 BRCA2−/− cells; [6]): 1000 nM
